Patent US11084830B2, “Five-membered non aromatic ring-pyrimidine HIV-1 reverse transcriptase inhibitor, preparation method therefor, and uses thereof” (priority 2018, dated 2021)
Where two headings read alike, the source gives them in different places.

Assays:
WT HIV-1 strain (IIIB) = assay: Anti-HIV-1 activity in MT-4 cells, MTT method, wild-type strain IIIB; type: cell-based; conditions: for EC50: Human immunodeficiency virus 1, IIIB, MT4, read-out: EC50 IIIB; for SI IIIB: selectivity index, ratio of CC50/EC50, strain IIIB
Experimental: (§1) Antiviral potency was evaluated in MT-4 cell cultures infected with WT HIV-1 strain (IllB) as well as cells infected with a panel of NNRTI-resistant double-mutant strain K103N+Y181C (RES056).
(§2) Selected compounds were screened for inhibitory activity against HIV-1 using MTT method as describe previously by Christophe. Pannecouque et al. Nat. Protoc. […] And in vitro anti-HIV activity of compounds were supported by Rega Institute for Medical Research. The MTT assay is based on the reduction of the yellow colored 3-(4,5-dimethylthiazol-2-yl)-2,5-diphenyltetrazolium bromide (MTT) by mitochondrial dehydrogenases of metabolically active cells to a blue formazan which can be measured spectrophotometrically. Tested optical density served as an indicator for live cells, and survival rate can be concluded by testing the optical density of 540 nm and 690 nm. MT-4 cells infected with HIV-1 can only survive for 5 to 7 days without any treatment, but when HIV-1 inhibitors were added, they can protect MT-4 cell from cytopathic. Serial solution of compounds was added to MT-4 cells after infected with HIV-1, MTT method was used to detect the survival rate after culture for 5 to 7 days.
(§3) (1) MT-4 cells infected with HIV-1 viral strains (IIIB, Y181C/K103N) were provided by Rega Institute for Medical Research, Katholieke Universiteit Leuven, Belgium.
(§4) (3) Preparation of compounds: Stock solutions (10×final concentration) of test compounds is diluted with double distilled H2O for 5 folds and 5 concentrations of one compound are prepared.
(§5) (5) Test method (MTT method): Serial five-fold dilutions of test compounds were added to cultured MT-4 cells infected with HIV-1, after 5 to 7 days, MTT was added and cultured for a few hours.
(§6) The MTT method was described briefly as follows: stock solutions (10×final concentration) of test compounds were added in 25 μL volumes to two series of triplicate wells in order to allow simultaneous evaluation of the effects on mock- and HIV-infected cells. Using a Biomek 3000 robot (Beckman Instruments, Fullerton, Calif.), serial five-fold dilutions of the test compounds (final 200 μL volume per well) were made directly in flat-bottomed 96-well microtiter trays, including untreated control HIV-1 and mock-infected cell samples for each sample. […] Mock-infected cells were used to evaluate the effect of test compounds on uninfected cells to assess cytotoxicity. Exponentially growing MT-4 cells were centrifuged for 5 min at 1000 rpm and the supernatant was discarded. […] At five days after infection, the viability of mock- and HIV-infected cells was determined spectrophotometrically by means of MTT assay.
(§7) The MTT assay is based on the reduction of yellow-colored MTT (Acros Organics, Geel, Belgium) by mitochondrial dehydrogenase of metabolically active cells to form a blue-purple formazan that can be measured spectrophotometrically. The absorbances were read in an eight-channel computer-controlled photometer, at the wavelengths of 540 and 690 nm. All data were calculated using the median optical density (OD) value of three wells.

[1] = system: NNRTI-resistant double-mutant strain K103N+Y181C (RES056); assay: microbe, parasite or virus in culture; type: cell-based, HIV-1; conditions: for EC50: Human immunodeficiency virus 1, MT4, read-out: EC50 RES056; for SI RES056: selectivity index, ratio of CC50/EC50, strain RES056
Experimental: as §1, §2, §3, §4, §5, §6, §7

[2] = Cytotoxicity in mock-infected MT-4 cells, MTT method; type: cell-based; conditions: human
Experimental: (§8) The MTT method was described briefly as follows: stock solutions (10×final concentration) of test compounds were added in 25 μL volumes to two series of triplicate wells in order to allow simultaneous evaluation of the effects on mock- and HIV-infected cells. Using a Biomek 3000 robot (Beckman Instruments, Fullerton, Calif.), serial five-fold dilutions of the test compounds (final 200 μL volume per well) were made directly in flat-bottomed 96-well microtiter trays, including untreated control HIV-1 and mock-infected cell samples for each sample. HIV-1 (IIIB) and mutant HIV-1 strains stock (50 μL at 100-300 CCID50) or culture medium was added to either the infected or mock-infected wells of the microtiter tray. Mock-infected cells were used to evaluate the effect of test compounds on uninfected cells to assess cytotoxicity. Exponentially growing MT-4 cells were centrifuged for 5 min at 1000 rpm and the supernatant was discarded. The MT-4 cells were resuspended at 6×10^5 cells/mL, and 50 μL aliquots were transferred to the microtiter tray wells. At five days after infection, the viability of mock- and HIV-infected cells was determined spectrophotometrically by means of MTT assay.
as §7

mock-infected MT-4 cells = assay: as above; type: cell-based; conditions: human, 5 days
Experimental: as §8, §7

[3] = concentration reducing viability of mock-infected MT-4 cell cultures by 50%, MTT method, read-out: CC50

Compound	EC50 (WT HIV-1 strain (IIIB))	EC50 [1]	CC50 at 5 days ([2]; CC50)	SI IIIB (WT HIV-1 strain (IIIB))	SI RES056 [1]	CC50 at 5 days ([2]; mock-infected MT-4 cells, concentration reducing viability of mock-infected MT-4 cell cultures by 50%, MTT method, read-out: CC50)	CC50 at 5 days [2, 3]	CC50 (mock-infected MT-4 cells)
Cc1cc(C#N)cc(C)c1Oc1nc(NC2CCN(Cc3cccc(C(N)=O)c3)CC2)nc2c1COC2 [Compound B6, 3-((4-((4-(4-cyano-2,6-dimethylphenoxy)-5,7-dihydrofuro[3,4-d]pyrimidin-2-yl)amino)piperidin-1-yl)methyl)benzamide]	7.8 ± 3.4 nM	1030 ± 51.1 nM	> 250000 nM	–	–	–	–	–
Cc1cc(C#N)cc(C)c1Oc1nc(NC2CCN(Cc3cccc(C(N)=O)c3)CC2)nc2c1CCC2 [Compound C6, 3-((4-((4-(4-cyano-2,6-dimethylphenoxy)-6,7-dihydro-5H-cyclopenta[d]pyrimidin-2-yl)amino)piperidin-1-yl)methyl)benzamide]	14.5 ± 3.6 nM	941 ± 368 nM	8730 ± 3530 nM	599	9	–	–	–
Cc1cc(C#N)cc(C)c1Oc1nc(NC2CCN(Cc3ccncc3)CC2)nc2c1SCC2 [Compound A4, 3,5-dimethyl-4-((2-((1-(pyridin-4-ylmethyl)piperidin-4-yl)amino)-6,7-dihydrothieno[3,2-d]pyrimidin-4-yl)oxy)benzonitrile]	–	46 ± 1.9 nM	≥ 106000 nM	≥40104	≥2305	–	–	–
Cc1ccnc2c1NC(=O)c1cccnc1N2C1CC1 [NVP, Nevirapine, reference compound]	163 ± 41.2 nM	> 9510 nM	–	–	–	> 9510 nM	–	–
Cc1cc(C#N)cc(C)c1Oc1nc(Nc2ccc(C#N)cc2)nc(N)c1Br [ETR, Etravirine, reference compound]	–	–	> 4590 nM	–	–	–	–	–
Cc1cc(C#N)cc(C)c1Oc1nc(NC2CCN(Cc3ccc(C(N)=O)cc3)CC2)nc2c1CCC2 [Compound C2, 4-((4-((4-(4-cyano-2,6-dimethylphenoxy)-6,7-dihydro-5H-cyclopenta[d]pyrimidin-2-yl)amino)piperidin-1-yl)methyl)benzamide]	–	173 ± 110 nM	> 251000 nM	>40984	>1448	–	–	–
Cc1cc(C#N)cc(C)c1Oc1nc(NC2CCN(Cc3ccc(S(C)(=O)=O)cc3)CC2)nc2c1CCC2 [Compound C3, 3,5-dimethyl-4-((2-((1-(4-(methylsulfonyl)benzyl)piperidin-4-yl)amino)-6,7-dihydro-5H-cyclopenta[d]pyrimidin-4-yl)oxy)benzonitrile]	1.8 ± 0.7 nM	54.7 ± 6.22 nM	> 274000 nM	–	>5020	–	> 200000 nM	–
Cc1cc(C#N)cc(C)c1Oc1nc(NC2CCN(Cc3ccncc3)CC2)nc2c1CCC2 [Compound C4, 3,5-dimethyl-4-((2-((1-(pyridin-4-ylmethyl)piperidin-4-yl)amino)-6,7-dihydro-5H-cyclopenta[d]pyrimidin-4-yl)oxy)benzonitrile]	2 ± 0.5 nM	26800 nM	205000 ± 1130 nM	–	9	–	> 200000 nM	–
Cc1cc(C#N)cc(C)c1Oc1nc(NC2CCN(Cc3ccc(C(N)=O)cc3)CC2)nc2c1SCC2 [Compound A2, 4-((4-((4-(4-cyano-2,6-dimethylphenoxy)-6,7-dihydrothieno[3,2-d]pyrimidin-2-yl)amino)piperidin-1-yl)methyl)benzamide]	–	43.6 ± 5 nM	–	34162	3804	–	–	165000 ± 36900 nM
Cc1cc(C#N)cc(C)c1Oc1nc(NC2CCN(Cc3cccc(C(N)=O)c3)CC2)nc2c1SCC2 [Compound A6, 3-((4-((4-(4-cyano-2,6-dimethylphenoxy)-6,7-dihydrothieno[3,2-d]pyrimidin-2-yl)amino)piperidin-1-yl)methyl)benzamide]	–	629 nM	≥ 223000 nM	≥8048	≥355	–	–	–
Cc1cc(C#N)cc(C)c1Oc1nc(NC2CCN(Cc3ccncc3)CC2)nc2c1COC2 [Compound B4, 3,5-dimethyl-4-((2-((1-(pyridin-4-ylmethyl)piperidin-4-yl)amino)-5,7-dihydrofuro[3,4-d]pyrimidin-4-yl)oxy)benzonitrile]	2.8 nM	43.1 ± 1.2 nM	32500 ± 10000 nM	11414	753	–	–	–
Cc1cc(C#N)cc(C)c1Oc1nc(NC2CCN(Cc3ccc(S(N)(=O)=O)cc3)CC2)nc2c1CSC2 [Compound D1, 4-((4-((4-(4-cyano-2,6-dimethylphenoxy)-5,7-dihydrothieno[3,4-d]pyrimidin-2-yl)amino)piperidin-1-yl)methyl)benzenesulfonamide]	–	734 ± 337 nM	–	715	36	–	–	26600 ± 1960 nM
Cc1cc(C#N)cc(C)c1Oc1nc(NC2CCN(Cc3ccc(S(C)(=O)=O)cc3)CC2)nc2c1SCC2 [Compound A3, 3,5-dimethyl-4-((2-((1-(4-(methylsulfonyl)benzyl)piperidin-4-yl)amino)-6,7-dihydrothieno[3,2-d]pyrimidin-4-yl)oxy)benzonitrile]	–	46.6 ± 7.8 nM	–	2025	257	–	–	11900 ± 5570 nM
Cc1cc(C#N)cc(C)c1Oc1nc(NC2CCN(Cc3ccc([N+](=O)[O-])cc3)CC2)nc2c1COC2 [Compound B5, 3,5-dimethyl-4-((2-((1-(4-nitrobenzyl)piperidin-4-yl)amino)-5,7-dihydrofuro[3,4-d]pyrimidin-4-yl)oxy)benzonitrile]	–	511 ± 165 nM	≥ 11100 nM	≥1497	≥22	–	–	–
Cc1cc(C#N)cc(C)c1Oc1nc(NC2CCN(Cc3ccc(S(C)(=O)=O)cc3)CC2)nc2c1COC2 [Compound B3, 3,5-dimethyl-4-((2-((1-(4-(methylsulfonyl)benzyl)piperidin-4-yl)amino)-5,7-dihydrofuro[3,4-d]pyrimidin-4-yl)oxy)benzonitrile]	1.8 nM	41.6 ± 4.9 nM	27000 ± 3030 nM	14414	648	–	–	–
Cc1cc(C#N)cc(C)c1Oc1nc(NC2CCN(Cc3ccc(S(N)(=O)=O)cc3)CC2)nc2c1COC2 [Compound B1, 4-((4-((4-(4-cyano-2,6-dimethylphenoxy)-5,7-dihydrofuro[3,4-d]pyrimidin-2-yl)amino)piperidin-1-yl)methyl)benzenesulfonamide]	2 ± 0.2 nM	38 ± 7.5 nM	22900 ± 2890 nM	11167	604	–	–	–
Cc1cc(C#N)cc(C)c1Oc1nc(NC2CCN(Cc3ccc([N+](=O)[O-])cc3)CC2)nc2c1SCC2 [Compound A5, 3,5-dimethyl-4-((2-((1-(4-nitrobenzyl)piperidin-4-yl)amino)-6,7-dihydrothieno[3,2-d]pyrimidin-4-yl)oxy)benzonitrile]	–	495 ± 1.3 nM	–	770	12	–	–	6180 ± 1740 nM
Cc1cc(C#N)cc(C)c1Oc1nc(NC2CCN(Cc3ccc([N+](=O)[O-])cc3)CC2)nc2c1CCC2 [Compound C5, 3,5-dimethyl-4-((2-((1-(4-nitrobenzyl)piperidin-4-yl)amino)-6,7-dihydro-5H-cyclopenta[d]pyrimidin-4-yl)oxy)benzonitrile]	4.9 ± 0.8 nM	187 nM	7450 ± 930 nM	1495	40	–	–	–
